pKd: −log10 of the molar value. Read-outs that look alike come from different tables or passages of the source.
How the values were obtained:
[1] = target: T1, Bfl-1 (Homo sapiens, UniProt Q16548); test: Peptide SPOT array binding
T1 construct: myc- Bfl-1 SPOT array & FP; made in house
T1 sequence (Q16548 with tags, fused parts or gaps): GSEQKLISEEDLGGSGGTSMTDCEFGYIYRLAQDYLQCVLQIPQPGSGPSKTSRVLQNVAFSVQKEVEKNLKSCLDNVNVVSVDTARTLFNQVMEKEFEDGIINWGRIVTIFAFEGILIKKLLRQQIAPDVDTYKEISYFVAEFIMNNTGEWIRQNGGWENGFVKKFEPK
Description: (§1) Peptide SPOT arrays were synthesized using F-moc chemistry on nitrocellulose membranes at the MIT Biopolymers facility using an Intavis AutoSpot robot. Peptide spots were cut from the membrane, hydrated in 100% methanol, transferred to TBS (50 mM Tris, pH 8.1, 100 mM NaCl, 0.01% Triton X-100) with 1% bovine serum albumin (BSA), here called blocking buffer, and incubated at room temperature for ∼10 minutes. Membranes were then incubated with 10 ml of 1 µM or 100 nM c-Myc-tagged receptor (sequences in Table S6) in TBS for 1 h at room temperature. Membranes were then rinsed 3× with blocking buffer and then incubated with anti-c-myc-Cy3 antibody (Sigma Aldrich C6594) diluted 100-fold in blocking buffer for 1 hour at room temperature. Membranes were rinsed 3× with blocking buffer and scanned on a Typhoon 9400 (GE Healthcare). Images were analyzed with ImageQuant (GE Healthcare), and Cy3 intensity at 580 nm was averaged over a circular area that was equal in size for all spots for a given membrane. Typically, 5–10 known binders and their negative controls were included.

[2] = target: T2, Mcl-1 (Homo sapiens, UniProt Q07820); test: Peptide SPOT array binding
T2 construct: myc-Mcl-1 SPOT array & FP; made in house
T2 sequence (Q07820 with tags, fused parts or gaps): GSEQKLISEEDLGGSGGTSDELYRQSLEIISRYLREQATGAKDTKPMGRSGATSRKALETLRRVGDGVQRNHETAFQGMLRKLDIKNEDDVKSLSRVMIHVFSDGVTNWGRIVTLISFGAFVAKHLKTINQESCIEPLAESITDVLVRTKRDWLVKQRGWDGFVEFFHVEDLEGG
Description: as §1

[3] = target: T3, Bcl-xL (Homo sapiens, UniProt Q07817); test: Peptide SPOT array binding; settings: c-Myc-tagged receptor 1 µM or 100 nM, anti-c-myc-Cy3 read-out
T3 construct: myc-Bcl-xL SPOT array & FP; made in house
T3 sequence (Q07817 with tags, fused parts or gaps): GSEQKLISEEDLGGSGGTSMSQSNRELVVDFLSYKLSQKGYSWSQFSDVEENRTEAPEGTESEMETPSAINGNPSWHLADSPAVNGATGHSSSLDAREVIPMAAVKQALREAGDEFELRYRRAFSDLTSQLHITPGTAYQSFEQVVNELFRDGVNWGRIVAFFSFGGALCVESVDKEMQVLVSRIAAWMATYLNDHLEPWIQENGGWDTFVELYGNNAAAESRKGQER
Description: as §1

[4] = target: T4, Bcl-2 (Homo sapiens, UniProt P10415, DEL53-91); test: Peptide SPOT array binding; settings: c-Myc-tagged receptor 1 µM or 100 nM, anti-c-myc-Cy3 read-out
T4 construct: myc- Bcl-2 FP; made in house
T4 sequence (P10415 with tags, fused parts or gaps DEL53-91): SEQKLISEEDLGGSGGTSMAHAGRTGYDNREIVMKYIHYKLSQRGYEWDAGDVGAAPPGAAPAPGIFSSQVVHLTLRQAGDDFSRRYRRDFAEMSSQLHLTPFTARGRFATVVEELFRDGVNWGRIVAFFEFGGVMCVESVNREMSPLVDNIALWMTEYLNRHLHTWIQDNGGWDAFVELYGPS
Description: as §1

[5] = target: T5, Bcl-w (Homo sapiens, UniProt Q92843, Q133R); test: Peptide SPOT array binding; settings: c-Myc-tagged receptor 1 µM or 100 nM, anti-c-myc-Cy3 read-out
T5 construct: myc-Bcl-w SPOT array & FP; made in house
T5 sequence (Q92843 with tags, fused parts or gaps Q133R): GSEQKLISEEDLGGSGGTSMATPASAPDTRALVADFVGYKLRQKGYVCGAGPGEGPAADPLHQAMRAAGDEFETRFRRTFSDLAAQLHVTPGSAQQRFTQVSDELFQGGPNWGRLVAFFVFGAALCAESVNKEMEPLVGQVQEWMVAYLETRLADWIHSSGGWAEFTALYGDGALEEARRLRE
Description: as §1

[6] = target: T5, Bcl-w; settings: natural BH3 peptides, interactions taken from literature; read-out: Binder class, Bcl-w; cited from earlier work
[7] = target: T3, Bcl-xL; settings: cited from earlier work
[8] = target: T1, Bfl-1; settings: natural BH3 peptides, interactions taken from literature; read-out: Binder class, Bfl-1; cited from earlier work
[9] = target: T2, Mcl-1; settings: read-out: Binder class, Mcl-1, cited from earlier work
Excerpt: Negative control mutatio ...

[10] = target: T4, Bcl-2; settings: natural BH3 peptides, interactions taken from literature; read-out: Binder class, Bcl-2; cited from earlier work
[11] = system: prosurvival proteins Bcl-xL, Bcl-w, Bcl-2, Mcl-1 and Bfl-1; test: Peptide SPOT array binding, receptor not specified; parameters: species or system human; settings: for Reduction in SPOT array signal when control mutations were introduced: 3aD and 3eL negative controls, receptor not specified; for SPOT array binding specificity among five prosurvival proteins: array IV
Description: as §1

[12] = c-Myc-tagged receptor 1 µM or 100 nM, anti-c-myc-Cy3 read-out
[13] = natural BH3 peptides, interactions taken from literature
[14] = S1 Bim variants, specific binding measured using yeast display, ref Dutta et al. (2010)

Substance	Binder class (Kd bin) [7, 14]	pKd [9, 14]	further results
AAQRYGRELRRMSDEFVDSFKKG [Bad]	–	–	Reduction in SPOT array signal for at least one of the negative controls, Bfl-1 ([1]; 3aD / 3eL mutations): less than 25%; Reduction in SPOT array signal for at least one of the negative controls, Mcl-1 ([2]; 3aD / 3eL mutations): less than 25%
APOL6: peptide from APOL6, putative BH3 motif (KEDLKGNIDKLRALADDIDKTHKKFT)	–	–	SPOT array signal as % of the Bim BH3 signal, Bcl-xL [3]: 17%
EGEKEVEALKKSADWVSDWSSRP [BNIP3L]	–	–	SPOT array signal as % of the Bim BH3 signal, Bcl-2 [4]: less than 3%; SPOT array signal as % of the Bim BH3 signal, Bcl-xL [3]: less than 3%; SPOT array signal as % of the Bim BH3 signal, Bfl-1 [1, 12]: 8%; SPOT array signal as % of the Bim BH3 signal, Bcl-w [5]: less than 3%; SPOT array signal as % of the Bim BH3 signal, Mcl-1 [2, 12]: less than 3%
IIRNIARHAAQVGASMDRSIPPG [Bid (X)]	–	–	pKd [6]: > 6.00; Binder class (Kd bin) [7, 13]: > 10000 nM; pKd [8]: < 5.00; pKd [9, 13]: > 6.00; pKd [10]: > 6.00
MTQEVGQLLQDMGDDVYQQYRSL [Mule]	–	–	Reduction in SPOT array signal when control mutations were introduced [11]: more than 30%; SPOT array binding specificity among five prosurvival proteins [11]: binding specifically to Mcl-1
PEIWVAQEIERIGNEVNAYYARR	> 10000 nM	> 6.00	–
PEIWVAQEIGRIGDETNAYYARR	> 10000 nM	> 6.00	–
PEIWVAQEIGRIGNEINAYYARR	> 10000 nM	> 6.00	–
PEIWVAQEINRIGEEINAYYARR	> 10000 nM	> 6.00	–
PEIWVAQEINRVGDEVNAYYARR	> 10000 nM	> 6.00	–
PEIWVAQEIRRVGDENNAYYARR	> 10000 nM	> 6.00	–
PEIWVAQELERIGEEVNAYYARR	> 10000 nM	> 6.00	–
PEIWVAQELGRDGDEFNAYYARR	< 1000 nM	< 5.00	–
PEIWVAQELGRNGDEYNAYYARR	< 1000 nM	< 5.00	–
PEIWVAQELGRTGDEVNAYYARR	> 10000 nM	> 6.00	–
PEIWVAQELKRAGEEFNAYYARR	< 1000 nM	< 5.00	–
PEIWVAQELKRNGDEFNAYYARR	< 1000 nM	< 5.00	–
PEIWVAQELSRAGDEFNAYYARR	< 1000 nM	< 5.00	–
PEIWVAQEVDRIGDEVNAYYARR	> 10000 nM	> 6.00	–

Substance	Binder class (Kd bin) [7, 14]	pKd [9, 14]	further results
PEIWYAQEAKRFGDEFNAYYARR	< 1000 nM	< 5.00	–
PEIWYAQEIGRYGDEFNAYYARR	< 1000 nM	< 5.00	–
PEIWYAQEINRIGDEVNAYYARR	> 10000 nM	> 6.00	–
PEIWYAQEIQRYGDEFNAYYARR	< 1000 nM	< 5.00	–
PEIWYAQEIRRAGDEFNAYYARR	< 1000 nM	< 5.00	–
PEIWYAQEIRRFGDEFNAYYARR	< 1000 nM	< 5.00	–
PEIWYAQELERIGDEVNAYYARR	> 10000 nM	> 6.00	–
PEIWYAQELGRAGDEFNAYYARR	< 1000 nM	< 5.00	–
PEIWYAQELGRNGDEYNAYYARR	< 1000 nM	< 5.00	–
PEIWYAQELGRYGDEYNAYYARR	< 1000 nM	< 5.00	–
PEIWYAQELKRDGDEFNAYYARR	< 1000 nM	< 5.00	–
PEIWYAQELKRFGDENNAYYARR	< 1000 nM	< 5.00	–
PEIWYAQELKRYGDENNAYYARR	< 1000 nM	< 5.00	–
PEIWYAQELQRNGDEFNAYYARR	< 1000 nM	< 5.00	–
PEIWYAQELRRDGDEYNAYYARR	< 1000 nM	< 5.00	–
PEIWYAQELRRNGDEYNAYYARR	< 1000 nM	< 5.00	–
PEIWYAQEVKRYGDEYNAYYARR	< 1000 nM	< 5.00	–
PEIWYAQEVQRIGDEVNAYYARR	> 10000 nM	> 6.00	–
RLAEVCAVLLRLGDELEMIRPSV [Bok]	–	–	Reduction in SPOT array signal when control mutations were introduced [11]: more than 30%; SPOT array binding specificity among five prosurvival proteins [11]: binding specifically to Mcl-1

Reference: paper PMC4072508, “Genome-Wide Prediction and Validation of Peptides That Bind Human Prosurvival Bcl-2 Proteins” (PLoS Computational Biology, 2014)
